Entries after “also recorded” stand apart in the source; their conditions may differ.
Tests used:
[1] = molecular target: T1, Ep Trp224His mutant (Salmonella typhimurium, UniProt P26393, W224H); experiment: Individual mutant analysis: Trp224His; type: biochemical, Salmonella enterica LT2; conditions: deconvolution of the mutant pool
T1 construct: made in house
Description: Thr102Ala, on the other hand, was responsible for the 2-fold increase in the conversion of (108). […] Yet, cumulatively, this small set of directed mutants was able to successfully turn over three of four targeted “unnatural” substrates. […] This Ep variant will serve as an excellent foundation for second generation double mutants.
(§1) Assays for product formation and steady state kinetics were accomplished using conditions similar to those described. in Jiang, J., Biggins, J. B. & Thorson, J. S. A General Enzymatic Method for the Synthesis of Natural and “Unnatural” UDP- and TDP-Nucleotide Sugars. J. Am. Chem. Soc. 122, 6803-6804 (2000). For the mutant pool assays, an aliquot which contained an eqimolar ratio of each mutant (60 μg) was utilized.

[2] = tested on: mutant pool (Asp41Asn, Glu62Asp, Thr201A and Trp224His Ep mutants); experiment: Conversion of sugar phosphates by pooled Ep mutants (FIG. 11); type: biochemical, Salmonella enterica LT2; conditions: 60 μg of each mutant
Procedure: (§2) FIG. 11. Percent conversion of sugar phosphates according to the present invention by wild-type and mutant enzymes. The alterations from native substrate (Glc-1-P,1) are highlighted in red. For the mutant pool, mutants Asp41Asn, Glu62Asp, Thr201A and Trp224His were pooled, concentrated and an aliquote constituting 60 μg of each mutant (corresponding to 3.5U Ep) was utilized for the assay.
As a rapid means to assay the entire pool of the four newly constructed mutants, the mutants were combined and the mixture directly tested for ability to convert compounds (2), (108), (89), (102), (38), and (127). […] Those substrates turned over include […] and (127), the two sugar phosphates not accepted or poorly accepted by wild-type Ep.
as §1

[3] = molecular target: T2, wild-type Ep (Salmonella typhimurium, UniProt P26393); experiment: Conversion of sugar phosphates by wild-type enzyme (FIG. 11); type: biochemical, Salmonella enterica LT2
T2 construct: made in house; host or cells: E. coli (E. coli-prfbA-C)
Procedure: as §2
Percent conversion was determined as described in Jiang, J., Biggins, J. B. & Thorson, J. S. A General Enzymatic Method for the Synthesis of Natural and “Unnatural” UDP- and TDP-Nucleotide Sugars. J. Am. Chem. Soc. 122, 6803–6804 (2000).
as §1

[4] = molecular target: T3, Salmonella enterica LT2 α-D-glucopyranosyl phosphate thymidylyltransferase (Ep) (Salmonella typhimurium, UniProt P26393); experiment: Ep-catalyzed conversion of α-D-hexopyranosyl phosphates and NTP to NDP-sugars, HPLC (FIG. 2); type: biochemical; conditions: for utilization as NTP substrate by Ep: NTP substrate specificity; for activity as Ep substrate with TTP: 5 mM NTP, 10 mM sugar phosphate, 30 min, 37° C.
T3 construct: made in house; host or cells: E. coli (E. coli-prfbA-C)
Description: FIG. 2. E^p-Catalyzed Conversion of Substrates wherein superscript indicators (a)–(h) are as follows: (a) Percent conversion=[Ap/(AP+AT)]×100, where AP is the NDP-sugar product peak integration and AT represents the NTP peak integration. HRMS for all observed products reported in the supporting information. (b) Standard retention times: TDP, […]; TTP, 7.2 mm; UDP, 4.0 mm; UTP, 6.1 mm. (c) Commercially available. (d) Coelutes with commercially available standard. […] (f) Adjusted for the 2:1 α/β-28. (g) In contrast to previously published studies (See Lindquist, L; Kaiser, R.; Reeves, P. R.; Lindberg, A. A., Eur J. Biochem, 1993, 211, 763–770). (h) No products observed.
To evaluate the synthetic utility of purified thymidylyltransferase, Ep, α-D-hexopyranosyl phosphate, Mg^+2 and NTP were incubated at about 37° C. for about 30 min and the extent of product formation determined by HPLC. The results of these assays are illustrated in FIG. 2. Confirmation of product formation was based upon HPLC co-elution with commercially available standards and/or HPLC isolation and high resolution mass spectroscopy of the product. […] A reaction containing 5 mM NTP, 10 mM sugar phosphate and 5.5 mM MgCl2 in a total volume of 50 μL 50 mM potassium phosphate buffer, pH 7.5 at 37° C. was initiated by the addition of 3.52 U Ep (1 U=the amount of protein needed to produce 1 μmol TDP-D-glucose min^−1). The reaction was incubated with slow agitation for 30 min at 37° C., quenched with MeOH (50 μL), centrifuged (5 min, 14,000×g) and the supernatant was stored at −20° C. until analysis by HPLC. Samples (20 μL) were resolved on a Sphereclone 5 u SAX column (250×4.6 mm) fitted with a guard column (30×4.6 mm) using a linear gradient (20–60 mM potassium phosphate buffer, pH 5.0, 1.5 mL min^−1, A275 nm).

[5] = molecular target: T3, Salmonella enterica LT2 α-D-glucopyranosyl phosphate thymidylyltransferase (Ep); experiment: Ep-catalyzed conversion of aminodeoxy/acetamidodeoxy sugar phosphates with inorganic pyrophosphatase, HPLC (FIG. 4); type: biochemical; conditions: 2.5 mM NTP, 5.0 mM sugar phosphate, 10 U inorganic pyrophosphatase, 30 min, 37° C.
Procedure: To evaluate the synthetic utility of thymidylyl-transferase, purified Ep, α-D-glucopyranosyl phosphate, Mg^+2, NTP and inorganic pyrophosphatase were incubated at 37° C. for 30 min and the extent of product formation determined by HPLC. The inorganic pyrophosphatase was included to drive the reaction forward. A reaction containing 2.5 mM NTP, 5.0 mM sugar phosphate, 5.5 mM MgCl2 and 10 U inorganic pyrophosphatase in a total volume of 50 μL 50 mM potassium phosphate buffer, pH 7.5 at 37° C. was initiated by the addition of 3.52 U Ep (1 U=the amount of protein needed to produce […] TDP-D-glucose min^−1). The reaction was incubated with slow agitation for 30 min at 37° C., quenched with MeOH (50 μL), centrifuged (5 min, 14,000×g) and the supernatant was stored at −20° C. until analysis by HPLC. Samples (30 μL) were resolved on a Sphereclone 5u SAX column (150×4.6 mm) fitted with a SecurityGuard ™ cartridge (Phenomenex; Torrance, Calif.) using a linear gradient (50–200 mM potassium phosphate buffer, pH 5.0, 1.5 mL min^−1, A275 nm).
The results of these assays are illustrated in FIG. 4. For each assay, confirmation of product formation was based upon high resolution mass spectroscopy of HPLC-isolated products and, also in some cases, HPLC co-elution with commercially available standards.
A reaction containing 2.5 mM NTP, 5.0 mM sugar phosphate, 5.5 mM MgCl2 and 10 U inorganic pyrophosphatase in a total volume of 50 μL 50 mM potassium phosphate buffer, pH 7.5 at 37° C. was initiated by the addition of 3.52 U Ep (1 U=the amount of protein needed to produce 1 μmol TDP-α-D-glucose min^−1) The reaction was incubated with slow agitation for 30 min at 37° C., quenched with MeOH (50 μL), centrifuged (5 min, 14,000×g) and the supernatant was stored at −20° C. until analysis by HPLC. Samples (30 μL) were resolved on a Sphereclone 5u SAX column (250×4.6 mm) fitted with a guard column (30×4.6 mm) using a linear gradient (50–200 mM potassium phosphate buffer, pH 5.0, 1.5 mL min^−1, A275 nm).

Molecule: O=C(O)[C@H]1O[C@H](OP(=O)(O)O)[C@H](O)[C@@H](O)[C@@H]1O [compound 127, α-D-glucopyranuronic acid 1-(dihydrogen phosphate)]
- conversion by Trp224His mutant [1]: responsible for converting
- turnover by the mutant pool [2]: turned over
- acceptance / conversion by wild-type Ep [3]: not accepted

Molecule: O=c1ccn([C@@H]2O[C@H](COP(=O)(O)OP(=O)(O)OP(=O)(O)O)[C@@H](O)[C@H]2O)c(=O)[nH]1 [UTP, reference compound]
- utilization as NTP substrate by Ep [4]: utilizes

Molecule: O=P([O-])([O-])O[C@H]1O[C@H](CO)[C@@H](O)[C@@H](O)[C@@H]1O.[Na+].[Na+] [compound 47, Disodium α-D-altropyranosyl Phosphate]
- activity as Ep substrate with TTP [4]: less activity

Molecule: O=P([O-])([O-])O[C@H]1O[C@H](CO)[C@@H](O)C[C@H]1O.[Na+].[Na+] [compound 28, Disodium 3-deoxy-α-D-glucopyranosyl Phosphate]
- activity as Ep substrate with TTP [4]: prefers

Molecule: O=P(O)(O)O[C@H]1O[C@H](CO)[C@@H](O)[C@H](O)[C@@H]1O [compound 56, α-D-mannopyranosyl phosphate, reference compound]
- activity as Ep substrate with TTP [4]: prefers

Molecule: O=P(O)(O)O[C@H]1O[C@H](CO)[C@H](O)[C@H](O)[C@H]1O [compound 57, α-D-galactopyranosyl phosphate, reference compound]
- activity as Ep substrate with TTP [4]: prefers

Molecule: N[C@@H]1[C@@H](O)[C@@H](OP(=O)([O-])[O-])O[C@H](CO)[C@H]1O.[Na+].[Na+] [compound 96, Disodium (3-amino-3-deoxy-α-D-glucopyranosyl) Phosphate]
- product formation with dTTP [5]: little or no effect

Molecule: NC[C@H]1O[C@H](OP(=O)([O-])[O-])[C@H](O)[C@@H](O)[C@@H]1O.[Na+].[Na+] [compound 85, Disodium-(6-amino-6-deoxy-α-D-glucopyranosyl) Phosphate]
- product formation with dTTP [5]: little or no effect
- product formation with UTP ([5]; Phosphate): exception; also recorded: adverse UTP-dependent effect upon yields

Molecule: CC(=O)N[C@H]1[C@H](O)[C@@H](O)[C@@H](OP(=O)([O-])[O-])O[C@@H]1CO.[Na+].[Na+] [compound 92, Disodium-(4-acetamido-4-deoxy-α-D-glucopyranosyl) Phosphate]
- product formation with dTTP [5]: less activity

Molecule: N[C@H]1[C@H](O)[C@@H](O)[C@@H](OP(=O)([O-])[O-])O[C@@H]1CO.[Na+].[Na+] [compound 91, Disodium-(4-amino-4-deoxy-α-D-glucopyranosyl) Phosphate]
- product formation with dTTP [5]: little or no effect

Molecule: O=P([O-])([O-])O[C@H]1O[C@H](CO)C[C@H](O)[C@H]1O.[Na+].[Na+] [compound 20, Disodium 4-deoxy-α-D-glucopyranosyl Phosphate]
- activity as Ep substrate with TTP [4]: prefers

Molecule: O=P([O-])([O-])O[C@H]1O[C@H](CO)[C@H](O)[C@H](O)[C@@H]1O.[Na+].[Na+] [compound 55, Disodium α-D-talopyranosyl Phosphate]
- activity as Ep substrate with TTP [4]: less activity

Molecule: C[C@H]1O[C@H](OP(=O)([O-])[O-])[C@H](O)[C@@H](O)[C@@H]1O.[Na+].[Na+] [compound 12, Disodium 6-deoxy-α-D-glucopyranosyl Phosphate]
- activity as Ep substrate with TTP [4]: prefers

Molecule: O=P([O-])([O-])O[C@H]1O[C@H](CO)[C@@H](O)[C@@H](O)[C@H]1O.[Na+].[Na+] [compound 38, Disodium α-D-allopyranosyl Phosphate]
- acceptance / conversion by wild-type Ep [3]: poor conversion
- activity as Ep substrate with TTP [4]: less activity

Molecule: CC(=O)N[C@@H]1[C@@H](O)[C@@H](OP(=O)([O-])[O-])O[C@H](CO)[C@H]1O.[Na+].[Na+] [compound 97, Disodium-(3-acetamido-3-deoxy-α-D-glucopyranosyl) Phosphate]
- product formation with UTP [5]: adverse UTP-dependent effect upon yields
- product formation with dTTP [5]: well-tolerated

Molecule: Nc1ccn([C@@H]2O[C@H](COP(=O)(O)OP(=O)(O)OP(=O)(O)O)[C@@H](O)[C@H]2O)c(=O)n1 [CTP, reference compound]
- utilization as NTP substrate by Ep [4]: not and not accepted

Molecule: N[C@H]1[C@@H](OP(=O)(O)O)O[C@H](CO)[C@@H](O)[C@@H]1O [compound 107, 2-amino-2-deoxy-α-D-glucopyranosyl phosphate, reference compound]
- product formation with dTTP [5]: little or no effect

Molecule: O=P([O-])([O-])O[C@@H]1C[C@@H](O)[C@H](O)[C@@H](CO)O1.[Na+].[Na+] [compound 43, Disodium 2-deoxy-α-D-glucopyranosyl Phosphate]
- activity as Ep substrate with TTP [4]: prefers
- Product hydrolysis observed, TDP ([4]; FIG. 2 footnote (e), TTP reaction): 7.6%
- Product hydrolysis observed, UDP ([4]; FIG. 2 footnote (e), UTP reaction): 10.2%

Molecule: O=P([O-])([O-])O[C@H]1O[C@H](CO)[C@H](O)[C@@H](O)[C@@H]1O.[Na+].[Na+] [compound 51, Disodium α-D-idopyranosyl Phosphate]
- activity as Ep substrate with TTP [4]: less activity

Molecule: Ethyl 2,3,4,6-tetra-O-benzyl-1-thio-β-D-gulopyranoside [compound 31]
- activity as Ep substrate with TTP [4]: less activity

Molecule: C[C@H]1O[C@H](OP(=O)([O-])[O-])[C@H](O)[C@@H](O)[C@@H]1N.[Na+].[Na+] [compound 102, Disodium-(4-amino-4,6-dideoxy-α-D-glucopyranosyl) Phosphate]
- product formation with UTP [5]: greatly diminishes
- product formation with dTTP [5]: does not effect

Reference: US7122359B2, “Active-site engineering of nucleotidylyltransferases and general enzymatic methods for the synthesis of natural and “unnatural” UDP- and TDP-nucleotide sugars” (priority 2000, dated 2006)
